Experiments:
Settings in all cases: 72 h
[1] = system: Caco-2; test: relative viability EC50 (midpoint between 100% and the lowest measured viability); higher = less toxic
[2] = system: HepG2; test: as above
[3] = system: Calu-3; test: as above
[4] = system: U2OS; test: as above
[5] = system: Vero E6; test: as above
[6] = system: Caco-2; test: drug sensitivity score (DSS) for viability; higher = more toxic; extreme values may be limits of the assay
[7] = system: HepG2; test: as above
[8] = system: Calu-3; test: as above
[9] = system: U2OS; test: as above
[10] = system: Vero E6; test: as above
[11] = system: Caco-2; test: cell viability relative to DMSO; higher = less toxic
[12] = system: HepG2; test: as above
[13] = system: Calu-3; test: as above
[14] = system: U2OS; test: as above
[15] = system: Vero E6; test: as above

Structure (SMILES)	relative viability EC50 [1]	relative viability EC50 [2]	relative viability EC50 [3]	relative viability EC50 [4]	relative viability EC50 [5]	drug sensitivity score [6]	drug sensitivity score [7]	drug sensitivity score [8]	drug sensitivity score [9]	drug sensitivity score [10]	cell viability ([11]; 1 nM)	cell viability ([11]; 10 nM)	cell viability ([11]; 100 nM)	cell viability ([11]; 1000 nM)	cell viability ([11]; 10000 nM)	cell viability ([12]; 1 nM)	cell viability ([12]; 10 nM)	cell viability ([12]; 100 nM)	cell viability ([12]; 1000 nM)	cell viability ([12]; 10000 nM)	cell viability ([13]; 1 nM)	cell viability ([13]; 10 nM)	cell viability ([13]; 100 nM)	cell viability ([13]; 1000 nM)	cell viability ([13]; 10000 nM)	cell viability ([14]; 1 nM)	cell viability ([14]; 10 nM)	cell viability ([14]; 100 nM)	cell viability ([14]; 1000 nM)	cell viability ([14]; 10000 nM)	cell viability ([15]; 1 nM)	cell viability ([15]; 10 nM)	cell viability ([15]; 100 nM)	cell viability ([15]; 1000 nM)	cell viability ([15]; 10000 nM)
CCC1=C[C@@H]2CN(C1)Cc1c([nH]c3ccccc13)[C@@](C(=O)OC)(c1cc3c(cc1OC)N(C)[C@H]1[C@@](O)(C(=O)OC)[C@H](OC(C)=O)[C@]4(CC)C=CCN5CC[C@]31[C@@H]54)C2 [vinorelbine]	0.0465 µM	0.0659 µM	0.137 µM	0.205 µM	0.754 µM	15.3	17.5	12.6	15.2	9.2	98.1%	94.7%	58.7%	53%	45.1%	103%	92.8%	58.6%	32.7%	39%	97.5%	100%	72.2%	51.1%	40.5%	95.8%	97%	77.5%	32.4%	22.7%	104%	101%	99.5%	54%	31.2%
CC(C)(F)C[C@H](N[C@@H](c1ccc(-c2ccc(S(C)(=O)=O)cc2)cc1)C(F)(F)F)C(=O)NC1(C#N)CC1 [odanacatib]	> 10 µM	> 10 µM	> 10 µM	> 10 µM	> 10 µM	0	0	0	0	0	96.1%	99.9%	99.1%	94.1%	90.4%	110%	104%	99.4%	101%	94.1%	98.3%	97.1%	100%	115%	98.7%	103%	108%	93.3%	102%	94.8%	101%	98.8%	99.8%	99.4%	106%
O=C(NC1CCC1)c1ccc(C#Cc2cccc(F)c2)nc1	> 10 µM	> 10 µM	> 10 µM	> 10 µM	> 10 µM	0	0	0	0	0	92.4%	102%	96.5%	98.9%	95.4%	91.7%	93.9%	89.4%	85.8%	93%	96.1%	98.6%	98.8%	103%	90.7%	104%	102%	96.3%	100%	91.6%	98.6%	98.5%	96.8%	90%	92.1%
CCCc1c(OCCCOc2ccc(OCC(=O)O)cc2)ccc(C(C)=O)c1O	> 10 µM	> 10 µM	> 10 µM	> 10 µM	> 10 µM	0	0	0	0	0	97.2%	90.6%	88.8%	95.7%	103%	102%	106%	107%	104%	92.8%	101%	94.8%	93.6%	101%	107%	94.3%	98.6%	93.4%	96.5%	102%	107%	99.5%	106%	102%	94.2%
CC1(C)S[C@@H]2[C@H](NC(=O)[C@H](N)c3ccc(O)cc3)C(=O)N2[C@H]1C(=O)O [amoxicillin]	> 10 µM	> 10 µM	> 10 µM	> 10 µM	> 10 µM	0	0	0	0	0	85%	78.5%	85.4%	97%	97.7%	99.3%	106%	97.3%	98.2%	96.4%	109%	110%	110%	106%	96.5%	102%	103%	96.2%	102%	106%	101%	97.8%	98.2%	88.2%	102%
COC(=O)CCc1ccc(OCC(O)CNC(C)C)cc1 (stereo not given) [esmolol]	> 10 µM	> 10 µM	> 10 µM	> 10 µM	> 10 µM	0	0	0	0	0	102%	84.8%	98.5%	95.5%	97.8%	110%	102%	94.5%	109%	96.5%	111%	99.8%	96.9%	105%	102%	101%	95%	94.6%	94.1%	99%	97.2%	93.1%	95.5%	100%	95.5%
NS(=O)(=O)c1cc2c(cc1Cl)NC(CC1CCCC1)NS2(=O)=O (stereo not given) [cyclopenthiazide]	> 10 µM	> 10 µM	> 10 µM	> 10 µM	> 10 µM	0	0	0	0	0	102%	106%	90.4%	98.6%	90.4%	111%	103%	101%	99.1%	102%	96.8%	105%	97.6%	97.7%	96.4%	100%	104%	98.8%	107%	96.6%	102%	91%	98.9%	94.9%	99.9%
O=c1[nH]c2cc(C(F)(F)F)c(N3CCOCC3)cc2n(CP(=O)(O)O)c1=O	> 10 µM	> 10 µM	> 10 µM	> 10 µM	> 10 µM	0	0	0	0	0	102%	92.8%	98.5%	106%	93.9%	95.4%	104%	107%	90.5%	99.1%	108%	106%	98%	99.7%	109%	97.3%	102%	103%	104%	99.7%	105%	99.8%	99.6%	102%	101%
Cc1ccc(Oc2ccccc2-c2csc(N=C3NCCCN3)n2)c(C)c1 [abafungin]	> 10 µM	> 10 µM	> 10 µM	> 10 µM	> 10 µM	2	2.3	0	0	0	104%	105%	100%	87.5%	78.3%	105%	104%	104%	87.8%	75.8%	90.4%	99%	104%	99.3%	112%	91.6%	95.2%	93.6%	96.7%	91.2%	106%	99.8%	105%	99.4%	97.7%
C[C@@H]([C@@H](O)c1ccc(O)cc1)N1CCC(O)(c2ccccc2)CC1 [traxoprodil]	> 10 µM	> 10 µM	> 10 µM	> 10 µM	> 10 µM	0	0	0	0	0	100%	100%	92.6%	99.8%	97%	98.1%	91.4%	104%	107%	101%	98.9%	94.3%	93.3%	109%	108%	100%	100%	96.1%	110%	101%	98.2%	95.3%	95.7%	100%	98.7%
C[C@@H]1NC(C)(C)CO[C@@]1(O)c1cccc(Cl)c1 [radafaxine]	> 10 µM	> 10 µM	> 10 µM	> 10 µM	> 10 µM	0	0	0	0	0	90.2%	94.4%	97.4%	99.9%	95%	98.3%	99.7%	97.6%	98.4%	90.3%	95.4%	92.4%	94.1%	101%	90.3%	101%	103%	101%	102%	97.5%	100%	97.9%	106%	96.4%	105%
O=C(NCC1CCCCN1)c1cc(OCC(F)(F)F)ccc1OCC(F)(F)F (stereo not given) [flecainide]	> 10 µM	> 10 µM	> 10 µM	> 10 µM	> 10 µM	0	0	0	0	0	94.1%	89.9%	94.5%	86%	104%	96.5%	103%	93.3%	94.9%	106%	108%	100%	97.5%	101%	101%	98.8%	97.2%	103%	100%	97.6%	90%	99.6%	90.1%	93.8%	99.1%
O=C(O)C1=CCCN(CCON=C(c2ccccc2)c2ccccc2)C1 [NNC-711]	> 10 µM	> 10 µM	> 10 µM	> 10 µM	> 10 µM	0	0	0	0	0	102%	95.6%	104%	96%	101%	93.4%	100%	99.1%	109%	101%	108%	100%	102%	101%	98.9%	98.7%	95.5%	103%	101%	98.5%	90.4%	103%	101%	97.4%	114%
Cc1cn2c(N)c(Cl)cc(C(=O)NCC3CCN(CC(C)C)CC3)c2n1	> 10 µM	> 10 µM	> 10 µM	> 10 µM	> 10 µM	0	0.5	0	0	0	103%	83.1%	103%	99.7%	107%	107%	99.6%	102%	88.1%	97.1%	102%	96.5%	99.9%	93.4%	99.9%	101%	95.1%	102%	97.6%	95.4%	88%	101%	90.2%	96.5%	99.2%

From the supplement of paper PMC13380429
